ChEMBL document CHEMBL5576067, “Synthesis and biological evaluation of novel 1,2,3,4-tetrahydro-β-carboline derivatives as potential antibacterial agents” (Bioorg Med Chem Lett, 2024)
Converted amounts (≈) assume the structure as drawn. The source made the active and inactive calls. The rule behind the calls is not given here.

Key:
Staphylococcus aureus [1] = assay: Drug resistance, ratio of MIC for methicillin-resistant Staphylococcus aureus ATCC33591 after 19 passages to MIC for methicillin-resistant Staphylococcus aureus ATCC33591 after initial exposure; format: functional
Staphylococcus aureus [2] = assay: Antibacterial activity against methicillin resistant Staphylococcus aureus ATCC33591 assessed as inhibition of bacterial growth incubated for 24 hrs by broth microdilution method; format: functional
Staphylococcus aureus [3] = assay: Drug resistance, ratio of MIC for methicillin-resistant Staphylococcus aureus ATCC33591 after 16 passages to MIC for methicillin-resistant Staphylococcus aureus ATCC33591 after initial exposure; format: functional
Staphylococcus aureus [4] = assay: Bactericidal activity against methicillin resistant Staphylococcus aureus ATCC33591 assessed as inhibition of bacterial growth incubated for 24 hrs by resazurin dye based analysis; format: functional
Staphylococcus aureus [5] = assay: Antibacterial activity against Staphylococcus aureus ATCC25923 assessed as inhibition of bacterial growth incubated for 24 hrs by broth microdilution method; format: functional
Staphylococcus aureus [6] = assay: Bactericidal activity against Staphylococcus aureus ATCC25923 assessed as inhibition of bacterial growth incubated for 24 hrs by resazurin dye based analysis; format: functional
Ralstonia solanacearum = assay: Antibacterial activity against Ralstonia solanacearum assessed as inhibition of bacterial growth incubated for 24 hrs by broth microdilution method; format: functional
Staphylococcus aureus [7] = assay: Antibacterial activity against methicillin resistant Staphylococcus aureus ATCC33591 infected in mouse model of abdominal infection assessed as reduction in mean bacterial load in blood at 2 mg/kg, ip treated for 24 hrs starting from 2 hrs post infection; format: functional, organism-based
Staphylococcus aureus [8] = assay: Antibacterial activity against methicillin resistant Staphylococcus aureus ATCC33591 assessed as post antibiotic effect at 1 ug/ml measured after 2 hrs; format: functional; details: dose 1 µg/ml
Enterococcus faecium = assay: Antibacterial activity against vancomycin-resistant Enterococcus faecium ATCC 700221 assessed as inhibition of bacterial growth incubated for 24 hrs by broth microdilution method; format: functional
[9] = (§1) Antibacterial activity against Pseudomonas syringae pv. actinidiae assessed as inhibition of bacterial growth incubated for 24 hrs by broth microdilution method; format: functional
Staphylococcus aureus [10] = assay: Antibacterial activity against methicillin resistant Staphylococcus aureus ATCC33591 assessed as post antibiotic effect at 2 ug/ml measured after 2 hrs; format: functional; details: dose 2 µg/ml
Staphylococcus aureus [11] = assay: Drug resistance, ratio of MIC for methicillin-resistant Staphylococcus aureus ATCC33591 after 18 passages to MIC for methicillin-resistant Staphylococcus aureus ATCC33591 after initial exposure; format: functional
Staphylococcus aureus [12] = assay: Antibacterial activity against methicillin resistant Staphylococcus aureus ATCC33591 assessed as post antibiotic effect at 16 ug/ml measured after 2 hrs; format: functional; details: dose 16 µg/ml
Staphylococcus aureus [13] = assay: Ratio of MBC to MIC for Staphylococcus aureus ATCC25923; format: functional
Staphylococcus aureus [14] = assay: Antibacterial activity against methicillin resistant Staphylococcus aureus ATCC33591 assessed as eradication of viable bacteria at >=4 times MIC measured within 24 hrs by time kill assay relative to control; format: functional
Staphylococcus aureus [15] = assay: Antibacterial activity against methicillin resistant Staphylococcus aureus ATCC33591 assessed as post antibiotic effect at 8 ug/ml measured after 2 hrs; format: functional; details: dose 8 µg/ml
[16] = Cytotoxicity against human L02 cells assessed as cell viability at 32 to 64 ug/ml measured after 24 hrs by MTT assay; format: toxicity, cell-based; details: at 32 to 64 µg/mL, dose 32-64 µg/ml, read-out: Activity
Escherichia coli = assay: Antibacterial activity against Escherichia coli ATCC25922 assessed as inhibition of bacterial growth incubated for 24 hrs by broth microdilution method; format: functional
Staphylococcus aureus [17] = assay: Antibacterial activity against methicillin resistant Staphylococcus aureus ATCC33591 infected in mouse model of abdominal infection assessed as reduction in mean bacterial load in blood at 10 mg/kg, ip treated for 24 hrs starting from 2 hrs post infection relative to control; format: functional; parameters: scale not given: the % may be the effect or the level left
[18] = Cytotoxicity against human HepG2 cells assessed as cell viability at 32 to 64 ug/ml measured after 24 hrs by MTT assay; format: toxicity, cell-based; details: at 32 to 64 µg/mL, dose 32-64 µg/ml, read-out: Activity
Staphylococcus aureus [19] = assay: Antibacterial activity against methicillin resistant Staphylococcus aureus ATCC33591 assessed as eradication of viable bacteria at >8 times MIC measured after 24 hrs by time kill assay; format: functional, organism-based
Staphylococcus aureus [20] = assay: Antibacterial activity against methicillin resistant Staphylococcus aureus ATCC33591 assessed as reduction in viable bacterial count at 2 times MIC measured within 24 hrs by time kill assay relative to control; format: functional
Staphylococcus aureus [21] = assay: Antibacterial activity against methicillin resistant Staphylococcus aureus ATCC33591 infected in mouse model of abdominal infection assessed as reduction in mean bacterial load in blood at 5 mg/kg, ip treated for 24 hrs starting from 2 hrs post infection relative to control; format: functional; parameters: scale not given: the % may be the effect or the level left
Staphylococcus aureus [22] = assay: Antibacterial activity against methicillin resistant Staphylococcus aureus ATCC33591 assessed as inhibition of bacterial growth at 1 times MIC incubated for 24 hrs by time kill assay; format: functional, organism-based
[23] = system: Pseudomonas syringae pv. actinidiae; assay: as §1; format: functional

Row | Molecule | MIC (Staphylococcus aureus [2]) [µg/mL] | MBC (Staphylococcus aureus [4]) [µg/mL] | MIC (Staphylococcus aureus [5]) [µg/mL] | MBC (Staphylococcus aureus [6]) [µg/mL] | MIC (Ralstonia solanacearum) [µg/mL] | MIC (Enterococcus faecium) [µg/mL] | MIC [9] [µg/mL] | Ratio (Staphylococcus aureus [11]) | PAE (Staphylococcus aureus [12]) [h] | Ratio (Staphylococcus aureus [13]) | PAE (Staphylococcus aureus [15]) [h] | viability at 24 h [16] [%] | MIC (Escherichia coli) [µg/mL] | viability at 24 h [18] [%] | Activity (Staphylococcus aureus [19]) | Activity (Staphylococcus aureus [22]) | other results
1 | CO[C@H]1/C=C/O[C@@]2(C)Oc3c(C)c(O)c4c(O)c(c(/C=N/N5CCN(C)CC5)c(O)c4c3C2=O)NC(=O)/C(C)=C\C=C\[C@H](C)[C@H](O)[C@@H](C)[C@@H](O)[C@@H](C)[C@H](OC(C)=O)[C@@H]1C [RIFAMPIN] | 0.25 (≈ 0.304 µM) | 1 (≈ 1.22 µM) | 0.25 (≈ 0.304 µM) | 2 (≈ 2.43 µM) |  |  |  |  |  |  |  |  |  |  |  |  | Ratio (Staphylococcus aureus [1]): 1024; Ratio (Staphylococcus aureus [3]): 256
2 | O=C(O)c1cn(C2CC2)c2cc(N3CCNCC3)c(F)cc2c1=O [CIPROFLOXACIN] | 0.5 (≈ 1.51 µM) | 2 (≈ 6.04 µM) | 0.5 (≈ 1.51 µM) |  | 0.25 (≈ 0.754 µM) | > 128 | 0.5 (≈ 1.51 µM) |  |  |  |  |  |  |  |  |  | Activity (Staphylococcus aureus [7]): Active; PAE (Staphylococcus aureus [8]): 1.18 h; PAE (Staphylococcus aureus [10]): 1.79 h
3 | O=C(Nc1ccc(C2NCCc3c2[nH]c2ccccc32)cc1)c1ccc(C(F)(F)F)cc1 (centres undefined) | 4 (≈ 9.19 µM) | 4 (≈ 9.19 µM) | 4 (≈ 9.19 µM) | 4 (≈ 9.19 µM) | 4 (≈ 9.19 µM) | 64 (≈ 147 µM) | 16 (≈ 36.7 µM) | <4 | 2.63 | 1 | 1.78 | > 95 | 4 (≈ 9.19 µM) | > 95 | Active | Active | Activity (Staphylococcus aureus [14]): 94.3%; Activity (Staphylococcus aureus [17]): 26%; Activity (Staphylococcus aureus [20]): 87.7%; Activity (Staphylococcus aureus [21]): 9.8%
4 | GENTAMICIN | > 128 | > 128 | 4 | 8 | 16 | > 128 |  |  |  |  |  |  | 4 |  |  |  | MIC [23]: 8 µg/mL
5 | O=C(Nc1ccc(C2NCCc3c2[nH]c2ccccc32)cc1)c1ccc(F)cc1 (centres undefined) | 4 (≈ 10.4 µM) | 8 (≈ 20.8 µM) | 4 (≈ 10.4 µM) | 8 (≈ 20.8 µM) | 4 (≈ 10.4 µM) | > 128 | 64 (≈ 166 µM) | <4 | 1.28 | 1 | 0.95 | > 95 | 16 (≈ 41.5 µM) | > 95 | Active | Active | 
